Target: T1, Cf-SGBP-CBMxxIV (Christiangramia forsetii, UniProt A0M709)
T1 sequence (A0M709 740-904): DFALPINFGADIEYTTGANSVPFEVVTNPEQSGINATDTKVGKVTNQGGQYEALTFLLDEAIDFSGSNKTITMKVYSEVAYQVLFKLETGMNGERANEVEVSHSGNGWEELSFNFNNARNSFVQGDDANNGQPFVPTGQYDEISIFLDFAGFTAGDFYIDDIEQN
Assay: isothermal titration calorimetry
Assay type: binding
Details: 293.15 K, pH 7.8, 10 mM MOPS, 100 mM NaCl; single-site model

With OC[C@H]1O[C@@H](O[C@@H]2[C@@H](O)[C@H](O[C@@H]3[C@@H](O)[C@H](O[C@@H]4[C@@H](O)[C@H](O[C@@H]5[C@@H](O)[C@H](O[C@@H]6[C@@H](O)[C@H](O[C@H]7[C@H](O)[C@@H](CO)OC(O)[C@@H]7O)O[C@H](CO)[C@H]6O)O[C@H](CO)[C@H]5O)O[C@H](CO)[C@H]4O)O[C@H](CO)[C@H]3O)O[C@H](CO)[C@H]2O)[C@H](O)[C@@H](O)[C@@H]1O (some centres unmarked) [DP7, laminariheptaose] the Ka was 1.87 (± 0.17) x10^4.
With OC[C@H]1O[C@@H](O[C@@H]2[C@@H](O)[C@H](O[C@@H]3[C@@H](O)[C@H](O[C@@H]4[C@@H](O)[C@H](O[C@H]5[C@H](O)[C@@H](CO)OC(O)[C@@H]5O)O[C@H](CO)[C@H]4O)O[C@H](CO)[C@H]3O)O[C@H](CO)[C@H]2O)[C@H](O)[C@@H](O)[C@@H]1O (some centres unmarked) [DP5, laminaripentaose] the Ka was 1.39 (± 0.07) x10^4.

— article doi:10.1101/2023.09.07.556657v1 (biorxiv, 2023)
